This note sets out measurements from patent publication US9732087B2, “Diamino-pyridine, pyrimidine, and pyridazine modulators of the histamine H4 receptor” (JANSSEN PHARMACEUTICA NV, priority 2008, dated 2017).

The target in this assay is human H4 receptor (Homo sapiens (Human), UniProt Q9H3N8). In words: Binding assay on recombinant human histamine H4 receptor ([3H]histamine competition, SK-N-MC cell membranes). Conditions: [3H]histamine 10 nM, average of results. On the procedure:
Binding Assay on Recombinant Human Histamine H4Receptor
Cell pellets from SK-N-MC cells stably or transiently transfected with human H4 receptor (NCBI accession No. AF312230) were used for the binding assays. Cell pellets were homogenized in 50 mM Tris/5 mM EDTA buffer and supernatants from an 800 g spin were collected and recentrifuged at 30,000 g for 30 min. Pellets were rehomogenized in 50 mM Tris/5 mM EDTA buffer. […] Membranes were harvested by rapid filtration using the 96 well Brandel system (Table 1, Brandel) or a cell harvester (Table 1, Cell Harvester) using a Whatman GF/C filter or filter plates treated with 0.5% polyethylenimine (PEI), and washed 4 times with ice-cold 50 mM Tris/5 mM EDTA buffer. Filters were then dried, mixed with scintillant and radioactive counts were determined. […] Where activity is shown as greater than (>) a particular value, the value is the highest concentration tested.

Setting [1] is: membranes harvested with cell harvester, read-out: Cell Harvester Ki.
Setting [2] is: membranes harvested with 96 well Brandel system, read-out: Brandel Ki.

Where two headings read alike, the source gives them in different places.

human H4 receptor, sequence (Q9H3N8 whole entry): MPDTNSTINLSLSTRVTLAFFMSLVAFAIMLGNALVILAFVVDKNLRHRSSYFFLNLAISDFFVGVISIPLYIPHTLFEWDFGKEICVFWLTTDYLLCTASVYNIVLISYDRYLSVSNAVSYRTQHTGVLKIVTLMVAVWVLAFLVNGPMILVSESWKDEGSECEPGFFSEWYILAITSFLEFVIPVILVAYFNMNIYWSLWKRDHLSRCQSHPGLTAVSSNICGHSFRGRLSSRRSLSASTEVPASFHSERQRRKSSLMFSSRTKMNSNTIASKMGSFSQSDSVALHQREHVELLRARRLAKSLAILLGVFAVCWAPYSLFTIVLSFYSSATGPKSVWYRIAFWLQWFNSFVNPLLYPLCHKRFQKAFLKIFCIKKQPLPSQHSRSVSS

What is called Ki is the equilibrium dissociation constant of an inhibitor or competing ligand from its target. For the compound `CCCCNc1nccc(N2CC[C@@H](N)C2)n1` [Example 46, 4-[(3R)-3-Aminopyrrolidin-1-yl]-N-butylpyrimidin-2-amine], the Ki under setting [1] turned out to be 8.4 nM.
Still for that read-out and setting: to `CCCCNc1nccc(N2CCN(C)CC2)n1` [Example 47, N-Butyl-4-(4-methylpiperazin-1-yl)pyrimidin-2-amine] belongs 33.2 nM; to `CN1CCN(c2ccnc(NC3CCCC3)n2)CC1` [Example 48, N-Cyclopentyl-4-(4-methylpiperazin-1-yl)pyrimidin-2-amine], 26.7 nM.
As for `CN1CCN(c2ccnc(NCC3CCCO3)n2)CC1` (stereo not drawn) [Example 50, 4-(4-Methylpiperazin-1-yl)-N-(tetrahydrofuran-2-ylmethyl)pyrimidin-2-amine], the inhibition constant (Ki) under setting [1] is 33.2 nM.
Same read-out and setting: to `N[C@@H]1CCN(c2ccnc(NCC3CCCO3)n2)C1` (stereo partly drawn) [Example 51, 4-[(R)-3-Aminopyrrolidin-1-yl]-N-(tetrahydrofuran-2-ylmethyl)pyrimidin-2-amine] belongs 123 nM; to `CC(C)Nc1nccc(N2CC[C@@H](N)C2)n1` [Example 52, 4-[(3R)-3-Aminopyrrolidin-1-yl]-N-(1-methylethyl)pyrimidin-2-amine], 33.4 nM.
As to `CC(C)Nc1nccc(N2CCN(C)CC2)n1` [Example 53, N-(1-Methylethyl)-4-(4-methylpiperazin-1-yl)pyrimidin-2-amine], the Ki under setting [2] is 24.3 nM and the Ki under setting [1] came to 85.7 nM.
With `CN1CCN(c2ccnc(NC3CCC3)n2)CC1` [Example 54, N-Cyclobutyl-4-(4-methylpiperazin-1-yl)pyrimidin-2-amine], the Ki under setting [1] came out at 87.9 nM.
As for `N[C@@H]1CCN(c2ccnc(NC3CC3)n2)C1` [Example 55, 4-[(3R)-3-Aminopyrrolidin-1-yl]-N-cyclopropylpyrimidin-2-amine], the inhibition constant (Ki) was found to be 138 nM under setting [2] and 102 nM under setting [1].
Consider `CN1CCN(c2ccnc(NC3CC3)n2)CC1` [Example 56, N-Cyclopropyl-4-(4-methylpiperazin-1-yl)pyrimidin-2-amine], for which, under setting [1], the inhibition constant (Ki) came out at 568 nM.
On the same count and under the same terms, with `N[C@@H]1CCN(c2ccnc(NCc3ccc(F)cc3)n2)C1` [Example 57, 4-[(3R)-3-Aminopyrrolidin-1-yl]-N-(4-fluorobenzyl)pyrimidin-2-amine] the figure was 140 nM; with `CN1CCN(c2ccnc(NCc3ccc(F)cc3)n2)CC1` [Example 58, N-(4-Fluorobenzyl)-4-(4-methylpiperazin-1-yl)pyrimidin-2-amine], 342 nM.
Regarding `COCCNc1nccc(N2CC[C@@H](N)C2)n1` [Example 59, 4-[(3R)-3-Aminopyrrolidin-1-yl]-N-(2-methoxyethyl)pyrimidin-2-amine], the inhibition constant (Ki) under setting [1] amounted to 190 nM.
As for `COCCNc1nccc(N2CCN(C)CC2)n1` [Example 60, N-(2-Methoxyethyl)-4-(4-methylpiperazin-1-yl)pyrimidin-2-amine], the Ki under setting [1] is 342 nM.
The same measure, in the same setting: to `N[C@@H]1CCN(c2ccnc(NCc3ccccn3)n2)C1` [Example 61] belongs more than 10000 nM; to `CN1CCN(c2ccnc(NCc3ccccn3)n2)CC1` [Example 62, 4-(4-Methylpiperazin-1-yl)-N-(pyridin-2-ylmethyl)pyrimidin-2-amine], more than 10000 nM; to `c1cc(N2CCNCC2)nc(NC2CCCC2)n1` [Example 63, Cyclopentyl-(4-piperazin-1-yl-pyrimidin-2-yl)-amine], 293 nM.
For the compound `CC(C)CNc1nccc(N2CCNCC2)n1` [Example 65, Isobutyl-(4-piperazin-1-yl-pyrimidin-2-yl)-amine], the inhibition constant (Ki) is, setting by setting: under setting [2], 46.3 nM; under setting [1], 68.6 nM.
The matching figures for `c1cc(N2CCNCC2)nc(NCC2CC2)n1` [Example 66, Cyclopropylmethyl-(4-piperazin-1-yl-pyrimidin-2-yl)-amine]: 12.2 nM and 56.8 nM.
In the case of `CC(C)Nc1nccc(N2CCNCC2)n1` [Example 67, Isopropyl-(4-piperazin-1-yl-pyrimidin-2-yl)amine], under setting [1], the Ki was 275 nM.
The same measure, in the same setting: to `CCCCNc1nccc(N2CCNCC2)n1` [Example 68, Butyl-(4-piperazin-1-yl-pyrimidin-2-yl)-amine] belongs 36.7 nM; to `c1cc(N2CCNCC2)nc(NC[C@H]2CCCO2)n1` [Example 69, (R)-(4-Piperazin-1-yl-pyrimidin-2-yl)-(tetrahydro-furan-2-ylmethyl)-amine], more than 10000 nM.
Regarding `c1cc(N2CCNCC2)nc(NC2CC3CCC2C3)n1` (stereo not drawn) [Example 70, Bicyclo[2.2.1]hept-2-yl-(4-piperazin-1-yl-pyrimidin-2-yl)-amine], the Ki is, setting by setting: under setting [2], 240 nM; under setting [1], 73 nM.
For the compound `COCCNc1nccc(N2CCNCC2)n1` [Example 72, N-(2-Methoxyethyl)-4-piperazin-1-ylpyrimidin-2-amine], the Ki under setting [1] amounted to 376 nM.
In the case of `CCCCNc1nccc(N2CC[C@@H](NC)C2)n1` [Example 73, Butyl-[4-(3R)-(3-methylamino-pyrrolidin-1-yl)-pyrimidin-2-yl]-amine], the Ki under setting [2] amounted to 2 nM and the inhibition constant Ki under setting [1] stood at 0.7 nM.
On to `CN[C@@H]1CCN(c2ccnc(NC3CC4CCC3C4)n2)C1` (stereo partly drawn) [Example 74, Bicyclo[2.2.1]hept-2-yl-[4-(3R)-(3-methylamino-pyrrolidin-1-yl)-pyrimidin-2-yl]-amine], for which the Ki under setting [1] worked out at 1.2 nM.
Still for that read-out and setting: to `CN[C@@H]1CCN(c2ccnc(NCC3CC3)n2)C1` [Example 77, Cyclopropylmethyl-[4-(3R)-(3-methylamino-pyrrolidin-1-yl)-pyrimidin-2-yl]-amine] belongs 3.3 nM.
On the same count and under the same terms, to `CN[C@@H]1CCN(c2ccnc(NC(C)C)n2)C1` [Example 78, Isopropyl-[4-(3R)-(3-methylamino-pyrrolidin-1-yl)-pyrimidin-2-yl]-amine] belongs 6 nM.
Still for that read-out and setting: with `CN[C@@H]1CCN(c2ccnc(NCc3ccc(F)cc3)n2)C1` [Example 79, (4-Fluoro-benzyl)-[4-(3R)-(3-methylamino-pyrrolidin-1-yl)-pyrimidin-2-yl]amine] the figure was 11.6 nM; with `CN[C@@H]1CCN(c2ccnc(NC3CC3)n2)C1` [Example 80, Cyclopropyl-[4-(3R)-(3-methylamino-pyrrolidin-1-yl)-pyrimidin-2-yl]-amine], 23.5 nM.
With `CN[C@@H]1CCN(c2ccnc(NCC3CCCO3)n2)C1` (stereo partly drawn) [Example 81, [4-(3R)-(3-Methylamino-pyrrolidin-1-yl)-pyrimidin-2-yl]-(tetrahydro-furan-2-ylmethyl)-amine], the inhibitory constant (Ki) under setting [1] worked out at 24.7 nM.
On the same count and under the same terms, to `CN[C@@H]1CCN(c2ccnc(NCCOC)n2)C1` [Example 82, (2-Methoxy-ethyl)-[4-(3R)-(3-methylamino-pyrrolidin-1-yl)-pyrimidin-2-yl]-amine] belongs 45.5 nM; to `CN[C@@H]1CCN(c2ccnc(NCc3ccccn3)n2)C1` [Example 83, [4-(3R)-(3-Methylamino-pyrrolidin-1-yl)-pyrimidin-2-yl]-pyridin-2-ylmethyl-amine], 196 nM.
On the same count and under the same terms, to `CCCCNc1nccc(N2CC(N)C2)n1` [Example 84, [4-(3-Amino-azetidin-1-yl)-pyrimidin-2-yl]-butyl-amine] belongs 33.3 nM; to `NC1CN(c2ccnc(NC3CCCC3)n2)C1` [Example 85, 4-(3-Aminoazetidin-1-yl)-N-cyclopentylpyrimidin-2-amine], 18.2 nM.
Take `NC1CN(c2ccnc(NCC3CC3)n2)C1` [Example 86, 4-(3-Aminoazetidin-1-yl)-N-(cyclopropylmethyl)pyrimidin-2-amine]: the Ki under setting [1] was 33.7 nM.
Still for that read-out and setting: to `NC1CN(c2ccnc(NC3CC4CCC3C4)n2)C1` (stereo not drawn) [Example 87, 4-(3-Aminoazetidin-1-yl)-N-bicyclo[2.2.1]hept-2-ylpyrimidin-2-amine] belongs 33.7 nM; to `CC(C)(C)CNc1nccc(N2CC(N)C2)n1` [Example 88, 4-(3-Aminoazetidin-1-yl)-N-(2,2-dimethylpropyl)pyrimidin-2-amine], 42.7 nM.
In the case of `CC(C)CNc1nccc(N2CC(N)C2)n1` [Example 89, 4-(3-Aminoazetidin-1-yl)-N-(2-methylpropyl)pyrimidin-2-amine], the inhibition constant Ki is 26.2 nM under setting [2] and 69.3 nM under setting [1].
The matching figures for `CC(C)Nc1nccc(N2CC(N)C2)n1` [Example 90, 4-(3-Aminoazetidin-1-yl)-N-(1-methylethyl)pyrimidin-2-amine]: 68.9 nM and 106 nM.
For `NC1CN(c2ccnc(NC3CC3)n2)C1` [Example 91, 4-(3-Aminoazetidin-1-yl)-N-cyclopropylpyrimidin-2-amine], under setting [1], the Ki was 182 nM.
On the same count and under the same terms, to `NC1CN(c2ccnc(NCc3ccc(F)cc3)n2)C1` [Example 92, 4-(3-Aminoazetidin-1-yl)-N-(4-fluorobenzyl)pyrimidin-2-amine] belongs 615 nM.
With `NC1CN(c2ccnc(N[C@@H]3CCOC3)n2)C1` [Example 93, 4-(3-Aminoazetidin-1-yl)-N-[(3R)-tetrahydrofuran-3-yl]pyrimidin-2-amine], the inhibition constant (Ki) under setting [1] came out at 702 nM.
The same measure, in the same setting: with `NC1CN(c2ccnc(NC[C@H]3CCCO3)n2)C1` [Example 94, 4-(3-Aminoazetidin-1-yl)-N-[(2R)-tetrahydrofuran-2-ylmethyl]pyrimidin-2-amine] the figure was 868 nM.
For the compound `CN[C@@H]1CCN(c2cnnc(N[C@H]3C[C@H]4C[C@@H]([C@@H]3C)C4(C)C)c2)C1` [Example 97, 5-[(3R)-3-(Methylamino)pyrrolidin-1-yl]-N-[(1S,2S,3S,5R)-2,6,6-trimethylbicyclo[3.1.1]hept-3-yl]pyridazin-3-amine], the inhibition constant (Ki) came to 5.9 nM under setting [2] and 5.9 nM under setting [1].
